Earlier results on 1 compound are cited in patent publication US20210267912A1, “METHYL SULFONYL METHANE-CONTAINING COMPOSITION FOR PREVENTING OR ALLEVIATING OBESITY, FATTY LIVER, AND DIABETES” (priority 2018, published 2021).

The conditions of this series: animal toxicity test.

With `CS(C)(=O)=O` [Methylsulfonylmethane], the Half lethal dose entry is given as “more than 20 g per 1 kg of body weight”.
